Measured values published in publication PMC8274846, “Biogenic nanoporous silicon carrier improves the efficacy of buparvaquone against resistant visceral leishmaniasis” (PLoS Neglected Tropical Diseases, 2021).

Assays:
[1] = tested on: intracellular L.donovani amastigotes, wild-type AG83, in macrophages; assay: Antileishmanial activity against intracellular amastigotes, wild-type AG83; assay type: cell-based; details: for Selectivity index (SI), AG83: CC50/IC50, intracellular; for IC50: Leishmania donovani, Macrophage, mean ± σ, n = 4, read-out: Cellular IC50, Wild-type AG83
Procedure: (§1) The intracellular antileishmanial activity was evaluated based on the reduction in the amastigote numbers in the infected macrophages after the treatment. The method was adapted from our previous work. Briefly, 4x10^6 amastigotes in 500 μL of RPMI-1640 suspension were added to each well containing macrophages with the macrophage: parasite ratio of 1:10. The plates were incubated for 4 h at 37°C in 5% CO2. After the parasite internalization period, cells were washed at least twice with fresh media to remove non-phagocytosed parasites. Then, the drug specimen suspended in 1 mL RPMI-1640 was added, and the samples were incubated for 72 h at 37°C in 5% CO2. The medium was aspirated, the coverslips were removed, and then fixed with methanol and air-dried. After staining with Giemsa, 100 cells on the glass discs were counted. Three independent experiments in quadruplicate for each concentration were performed.
(§2) Microscopic examinations were performed in duplicates with various concentrations of pure drugs or buparvaquone-loaded nanoparticles and also for control wells. The amastigotes cells were counted for all cases using a hemocytometer. The mean of the control wells was considered as 100% survival. The counts in the treated wells at various concentrations were converted into percentages. Giemsa-stained slides of the macrophages infected with amastigotes were observed under a light microscope. Then the numbers of amastigotes and infected macrophages per 100 cells were counted for each slide. The percentage (%) of inhibition was calculated by using the equation %ofinhibition=C−T/C×100, (2) where C is the number of amastigotes/infected macrophages per 100 cells in the control well and T is the number of amastigotes/infected macrophages per 100 cells in the drug-treated well.
(§3) Origin version 6.1 software was used to calculate IC50 and CC50 values by plotting a graph of the percentage of inhibition at various concentrations of all the observations.

[2] = tested on: axenic L.donovani amastigotes, AG83-R, SSG (SSG resistant strain generated from AG83); assay: microbe, parasite or virus in culture; assay type: cell-based; details: for Resistance index (RI), AG83-R, SSG: IC50 against drug resistant strain / IC50 against wild-type strain (AG83), axenic; for IC50: Leishmania donovani, read-out: Axenic IC50, AG83-R, SSG
Procedure: (§4) L. donovani AG83 (MHOM/IN/83/AG83) and GE1 (MHOM/IN/80/GE1F8R) promastigotes were routinely grown in medium 199 supplemented with 10% heat-inactivated fetal bovine serum, 2 mM L-glutamine, 20 mM HEPES, 100 U/mL penicillin, and 100 μg/mL streptomycin at 25°C. L. donovani amastigote forms were grown and maintained as described previously. Axenic amastigote forms were derived from promastigote forms by culturing them in MMA/20 (medium for axenic amastigote) at pH 5.5 [22]. Axenically grown amastigotes were maintained by sub-culture of 10^5 parasites/ml repeated every fifth day under experimental conditions of 37°C temperature and 5% CO2 environment.
(§5) SSG and PMM resistant L. donovani amastigotes were generated by using the methods described previously. […] The cultures were stabilized for three subcultures. Then, the drug concentration was increased until the cell population decreased approximately to 20% for each batch. Finally, when 90% cell population of the initial count was reduced, the phenotype generated was plated on medium 199 agar plates containing the same drug concentration, and a single colony was picked for culture in medium 199 liquid media at the same drug concentration. The cultured promastigotes are converted into amastigotes as described above. Drug pressure was withdrawn, and stability was checked at one, two, and four months. SSG and PMM resistant phenotype clones were labeled as AG83-R,SSG and AG83-R, PMM, respectively.
(§6) The antileishmanial activity of the drug specimens (BPQ+NP, BPQ, SSG, AmB, PMM, and MF) against the axenic amastigotes were evaluated based on the IC50 value, which is the concentration of the specimen required to kill 50% of the parasites. The parasites were first seeded into 96-well plates at a density of 1x10^5 amastigotes/well in 200 μL medium. Then, 10 μL of the drug candidates at various concentrations were added and the final volume was adjusted to […] medium. The number of amastigotes in the wells treated with each specimen were compared to those in the untreated control wells.
as §2, §3

[3] = tested on: axenic L.donovani amastigotes, AG83-R, PMM (PMM resistant strain generated from AG83); assay: microbe, parasite or virus in culture; assay type: cell-based; details: for Resistance index (RI), AG83-R, PMM: IC50 against drug resistant strain / IC50 against wild-type strain (AG83), axenic
Procedure: as §4, §5, §6, §2, §3

[4] = tested on: intracellular L.donovani amastigotes, GE1, in macrophages; assay: Antileishmanial activity against intracellular amastigotes, GE1; assay type: cell-based; details: for Selectivity index (SI), GE1: CC50/IC50, intracellular; for IC50: Leishmania donovani, Macrophage, mean ± σ, n = 4, read-out: Cellular IC50, GE1
Procedure: as §1, §2, §3

[5] = tested on: intracellular L.donovani amastigotes, AG83-R, PMM, in macrophages; assay: microbe, parasite or virus in culture; assay type: cell-based; details: for Selectivity index (SI), AG83-R, PMM: CC50/IC50, intracellular
Procedure: as §5, §1, §2, §3

[6] = tested on: intracellular L.donovani amastigotes, AG83-R, SSG, in macrophages; assay: microbe, parasite or virus in culture; assay type: cell-based; details: for Selectivity index (SI), AG83-R, SSG: CC50/IC50, intracellular; for IC50: Leishmania donovani, Macrophage, read-out: Cellular IC50, AG83-R, SSG
Procedure: as §5, §1, §2, §3

[7] = tested on: resident peritoneal macrophages; assay: Cytotoxicity studies (CC50) on peritoneal macrophages; assay type: cell-based, BALB/c mice; details: 48 h exposure, values for SSG given in μg/ml
Procedure: (§7) Resident peritoneal macrophages were isolated from BALB/c mice. For the isolation, 1.5 mL of sterile thioglycolate medium was injected into the peritoneal cavity to induce non-infectious inflammation. Animals were sacrificed after 5 days, and peritoneal exudates were harvested by intraperitoneal lavage. Cold RPMI (6 mL) was injected into the peritoneal cavity. After 10 min, the injected fluid was withdrawn by the same syringe. From each animal, approximately 3-4 mL of medium was recovered. After centrifugation at 200 g for 15 min, macrophages were collected. […] The cytotoxicity of the drug specimen was evaluated by the CC50 value, which is the concentration required to kill 50% of the host cell population. Macrophages were first isolated from peritoneal lavage as described above. The cells were seeded into 96-well plates at 1x10^6 cells/mL in 200 μL of RPMI-1640 supplemented with 10% FCS, 20 mM L-glutamine, 16 mM NaHCO3, penicillin (50 U/mL) and streptomycin (50 μg/ mL) at 37°C in 5% CO2 for 4 h for adherence. To remove the non-adherent cells, each plate was washed two times with phosphate buffer saline (pH 7.2). […] Microscopic examinations were performed in duplicates with various concentrations of pure drugs or buparvaquone-loaded nanoparticles and also for control wells. The amastigotes cells were counted for all cases using a hemocytometer. The mean of the control wells was considered as 100% survival. The counts in the treated wells at various concentrations were converted into percentages. Giemsa-stained slides of the macrophages infected with amastigotes were observed under a light microscope. Then the numbers of amastigotes and infected macrophages per 100 cells were counted for each slide. The percentage (%) of inhibition was calculated by using the equation %[…]×100, (2) where C is the number of amastigotes/infected macrophages per 100 cells in the control well and T is the number of amastigotes/infected macrophages per 100 cells in the drug-treated well.

[8] = tested on: axenic L.donovani amastigotes, wild-type AG83; assay: Antileishmanial activity against axenic amastigotes, wild-type AG83; assay type: cell-based; details: axenic amastigotes, mean ± σ, n = 4; for IC50: Leishmania donovani
Procedure: as §4, §6, §2, §3

[9] = tested on: wild-type AG83 promastigotes; assay: IC50 against wild-type AG83 promastigotes (used for generation of resistant strains); assay type: cell-based, L. donovani
Procedure: as §5

[10] = tested on: axenic L.donovani amastigotes, GE1 (isolated strain resistant to SSG); assay: Antileishmanial activity against axenic amastigotes, GE1; assay type: cell-based; details: for Resistance index (RI), GE1: IC50 against drug resistant strain / IC50 against wild-type strain (AG83), axenic; for IC50: Leishmania donovani
Procedure: as §4, §6, §2, §3

[11] = Cytotoxicity studies (CC50) on peritoneal macrophages; assay type: cell-based, BALB/c mice; details: BALB/c, mouse, resident peritoneal macrophages, 48 h exposure, mean ± σ, n = 3
Procedure: as §7

[12] = intracellular amastigotes, 72 h, values for SSG given in μg/ml
[13] = axenic amastigotes, values for SSG given in μg/ml, mean ± σ, n = 4
[14] = intracellular amastigotes, 72 h
[15] = axenic amastigotes, mean ± σ, n = 4

SMILES	Selectivity index (SI), AG83 [1]	Resistance index (RI), AG83-R, SSG [2]	Resistance index (RI), AG83-R, PMM [3]	Selectivity index (SI), GE1 [4]	Selectivity index (SI), AG83-R, PMM [5]	Selectivity index (SI), AG83-R, SSG [6]	Resistance index (RI), GE1 [10]	IC50 [1, 14]	IC50 [2]	IC50 [4, 14]	IC50 ([6]; 72 h)	CC50 at 48 h [11]	IC50 [8]	IC50 [10, 15]	also measured
O.O.O.O.O.O.O.O.O.O=C([O-])[C@@H]1[O][Sb](=[O])([O][Sb]2(=[O])[O][C@H]([C@H](O)CO)[C@H](O)[C@H](C(=O)[O-])[O]2)[O][C@H]([C@H](O)CO)[C@@H]1O.[Na+].[Na+].[Na+] (stereo partly drawn) [SSG, sodium stibogluconate]	15 ± 4	38 ± 4	32 ± 3	4 ± 2	2 ± 1	1 ± 1	4 ± 1	–	–	–	–	–	–	–	Cellular IC50, Wild-type AG83 [1, 12]: 1.8 ± 0.2 µg/mL; Axenic IC50, AG83-R, SSG [2, 13]: 133 ± 15 µg/mL; Axenic IC50, AG83-R, PMM [3, 13]: 113 ± 15 µg/mL; Cellular IC50, GE1 [4, 12]: 7.5 ± 0.3 µg/mL; Cellular IC50, AG83-R, PMM [5, 12]: 20 ± 2 µg/mL; Cellular IC50, AG83-R, SSG [6, 12]: 22 ± 2 µg/mL; CC50 [7]: 27 ± 2 µg/mL; Axenic IC50, Wild-type AG83 ([8]; values for SSG given in μg/ml): 3.5 ± 0.7 µg/mL; IC50 against the parasite ([9]; medium 199): 3.6 µg/mL; Axenic IC50, GE1 [10, 13]: 14 ± 2 µg/mL
NC[C@@H]1O[C@H](O[C@H]2[C@@H](O)[C@H](O[C@@H]3[C@@H](O)[C@H](N)C[C@H](N)[C@H]3O[C@H]3O[C@H](CO)[C@@H](O)[C@H](O)[C@H]3N)O[C@@H]2CO)[C@H](N)[C@@H](O)[C@@H]1O [PMM, paromomycin]	30 ± 5	32 ± 3	27 ± 2	13 ± 2	2 ± 1	2 ± 1	2.1 ± 0.3	9 ± 2 µM	384 ± 23 µM	20 ± 3 µM	140 ± 10 µM	260 ± 20 µM	12 ± 1 µM	25 ± 2 µM	IC50 ([3]; Leishmania donovani, read-out: Axenic IC50, AG83-R, PMM): 327 ± 12 µM; IC50 ([5]; Leishmania donovani, Macrophage, 72 h, read-out: Cellular IC50, AG83-R, PMM): 120 ± 10 µM; IC50 ([9]; Leishmania donovani, medium 199, read-out: IC50 against the parasite): 10 µM
CCCCCCCCCCCCCCCCOP(=O)([O-])OCC[N+](C)(C)C [MF, miltefosine]	100 ± 10	1.3 ± 0.2	1.1 ± 0.2	80 ± 10	70 ± 10	60 ± 5	1.1 ± 0.3	0.4 ± 0.1 µM	0.6 ± 0.1 µM	0.5 ± 0.1 µM	0.7 ± 0.1 µM	36 ± 4 µM	0.5 ± 0.1 µM	0.5 ± 0.1 µM	–
